Assay results published in ChEMBL document CHEMBL1201862, “PubChem BioAssay data set” (2004).
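Dose response: 5 concentrations. Exposure: 48 h. Format: 96-well plates. Endpoint: linear interpolation; highest concentration if not reached. Here, GI50 denotes the concentration required for 50% inhibition of growth.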 Activity calls are given as the source filed them. Rule as the data show it: active = GI50 up to about 1.1 µM and inactive = higher.

What was measured:
Experiment in all cases: DTP human tumour cell line panel, 48 h
NCI-H23 = system: NCI-H23
LOX IMVI = system: LOX IMVI
SF-268 = system: SF-268
CCRF-CEM = system: CCRF-CEM
K562 = system: K562
Hs-578T = system: Hs-578T
KM12 = system: KM12
SK-MEL-2 = system: SK-MEL-2
HCT-116 = system: HCT-116
EKVX = system: EKVX
SK-MEL-28 = system: SK-MEL-28
OVCAR-3 = system: OVCAR-3
786-0 = system: 786-0
COLO 205 = system: COLO 205
SR = system: SR
U-251 = system: U-251
A549 = system: A549
SK-MEL-5 = system: SK-MEL-5
SW-620 = system: SW-620
MDA-MB-231 = system: MDA-MB-231

| Structure (SMILES) | GI50 (NCI-H23) | GI50 (LOX IMVI) | GI50 (SF-268) | GI50 (CCRF-CEM) | GI50 (K562) | GI50 (Hs-578T) | GI50 (KM12) | GI50 (SK-MEL-2) | GI50 (HCT-116) | GI50 (EKVX) | GI50 (SK-MEL-28) | GI50 (OVCAR-3) | GI50 (786-0) | GI50 (COLO 205) | GI50 (SR) | GI50 (U-251) | GI50 (A549) | GI50 (SK-MEL-5) | GI50 (SW-620) | GI50 (MDA-MB-231) |
| --- | --- | --- | --- | --- | --- | --- | --- | --- | --- | --- | --- | --- | --- | --- | --- | --- | --- | --- | --- | --- |
| CC(=O)c1ccc2c(c1)CC1(C2)Cc2cc3c(cc2C1)C(=O)CC3 (stereo not given) | 3.06 µM (inactive) | 6.37 µM (inactive) | 3.15 µM (inactive) | 0.65 µM (active) | 0.521 µM (active) | 5.73 µM (inactive) | 0.624 µM (active) | 0.356 µM (active) | 2.1 µM (inactive) | 6 µM (inactive) | 3.55 µM (inactive) | 0.493 µM (active) | 3.64 µM (inactive) | 0.344 µM (active) | 0.322 µM (active) | 1.8 µM (inactive) | 0.792 µM (active) | 0.608 µM (active) | 0.681 µM (active) | 2.51 µM (inactive) |
| COc1ccc(/C=C/C=C2C(=O)NC(=S)NC2=O)cc1 | 9.71 µM (inactive) | 1.89 µM (inactive) | 4.68 µM (inactive) | 1.59 µM (inactive) | 2.21 µM (inactive) | 6.44 µM (inactive) | 8.79 µM (inactive) | 16.1 µM (inactive) | 4.7 µM (inactive) | 8.91 µM (inactive) | 1.76 µM (inactive) | 6.78 µM (inactive) | 2.35 µM (inactive) | 3.83 µM (inactive) | 1.35 µM (inactive) | 2.16 µM (inactive) | 20.3 µM (inactive) | 13.3 µM (inactive) | 1.78 µM (inactive) | 2.11 µM (inactive) |
| CNC(=S)N/N=C/c1ccc([N+](=O)[O-])s1 | > 10 µM (inactive) | > 10 µM (inactive) | > 10 µM (inactive) | > 10 µM (inactive) | > 10 µM (inactive) | > 10 µM (inactive) | 3.99 µM (inactive) | > 10 µM (inactive) | 5.48 µM (inactive) | > 10 µM (inactive) | > 10 µM (inactive) | 2.23 µM (inactive) | > 10 µM (inactive) | 1.81 µM (inactive) | 4.81 µM (inactive) | > 10 µM (inactive) | 7.38 µM (inactive) | > 10 µM (inactive) | > 10 µM (inactive) | > 10 µM (inactive) |
| N#CC(NC12CC3CC(CC(C3)C1)C2)c1ccc2c(c1)OCO2 (stereo not given) | > 100 µM (inactive) | > 100 µM (inactive) | > 100 µM (inactive) | > 100 µM (inactive) | > 100 µM (inactive) | > 100 µM (inactive) | > 100 µM (inactive) | > 100 µM (inactive) | > 100 µM (inactive) | > 100 µM (inactive) | > 100 µM (inactive) | > 100 µM (inactive) | > 100 µM (inactive) | > 100 µM (inactive) | > 100 µM (inactive) | > 100 µM (inactive) | > 100 µM (inactive) | > 100 µM (inactive) | > 100 µM (inactive) | > 100 µM (inactive) |
| CCOC(=O)/C(C(=O)c1ccc[nH]1)=C1/CCCN1C | > 100 µM (inactive) | > 100 µM (inactive) | > 100 µM (inactive) | > 100 µM (inactive) | > 100 µM (inactive) | > 100 µM (inactive) | > 100 µM (inactive) | > 100 µM (inactive) | > 100 µM (inactive) | > 100 µM (inactive) | > 100 µM (inactive) | > 100 µM (inactive) | > 100 µM (inactive) | > 100 µM (inactive) | > 100 µM (inactive) | > 100 µM (inactive) | > 100 µM (inactive) | > 100 µM (inactive) | > 100 µM (inactive) | > 100 µM (inactive) |
| Nc1nc2c(ncn2Cc2ccccc2CO)c(=O)[nH]1 | > 100 µM (inactive) | > 100 µM (inactive) | > 100 µM (inactive) | > 100 µM (inactive) | > 100 µM (inactive) | > 100 µM (inactive) | > 100 µM (inactive) | > 100 µM (inactive) | > 100 µM (inactive) | > 100 µM (inactive) | > 100 µM (inactive) | > 100 µM (inactive) | > 100 µM (inactive) | > 100 µM (inactive) | > 100 µM (inactive) | > 100 µM (inactive) | > 100 µM (inactive) | > 100 µM (inactive) | > 100 µM (inactive) | > 100 µM (inactive) |
| C=C1CC(Cn2cc(C)c(=O)[nH]c2=O)(c2ccc(Cl)cc2)OC1=O (stereo not given) | 3.3 µM (inactive) | 1.56 µM (inactive) | 17.1 µM (inactive) | 0.855 µM (active) | 0.673 µM (active) | 6.58 µM (inactive) | 13.6 µM (inactive) | 2.12 µM (inactive) | 1.65 µM (inactive) | 11.9 µM (inactive) | 2.18 µM (inactive) | 3.6 µM (inactive) | 1.56 µM (inactive) | 1.42 µM (inactive) | 1.17 µM (inactive) | 16.2 µM (inactive) | 16.6 µM (inactive) | 2.67 µM (inactive) | 1.44 µM (inactive) | 3.05 µM (inactive) |
| COc1cc2oc3cc(=O)cc4oc(-c5ccccc5)cc(c2c2c1CCC(c1ccccc1)O2)c43 (stereo not given) | 62.8 µM (inactive) | 31.9 µM (inactive) | > 100 µM (inactive) | 61 µM (inactive) | 33 µM (inactive) | 85.9 µM (inactive) | 17 µM (inactive) | 33 µM (inactive) | 29.2 µM (inactive) | 65.6 µM (inactive) | 40.7 µM (inactive) | 26 µM (inactive) | 48.2 µM (inactive) | 18.8 µM (inactive) | 11.1 µM (inactive) | 43.1 µM (inactive) | 72.8 µM (inactive) | 20.4 µM (inactive) | 67.1 µM (inactive) | 22.3 µM (inactive) |
| CCOC(=O)C(=Cc1ccccc1Br)C(=O)OCC | 2.48 µM (inactive) | 0.695 µM (active) | 3.11 µM (inactive) | 9.23 µM (inactive) | 0.656 µM (active) | 3.4 µM (inactive) | 1.62 µM (inactive) | 2.14 µM (inactive) | 2.95 µM (inactive) | 4.18 µM (inactive) | 2.4 µM (inactive) | 2.07 µM (inactive) | 3.05 µM (inactive) | 2.8 µM (inactive) | 0.208 µM (active) | 1.66 µM (inactive) | 4 µM (inactive) | 1.85 µM (inactive) | 1.97 µM (inactive) | 6.41 µM (inactive) |
| CC(C)(C)c1cc(C(C)(C)C)c(P=C(Cl)Cl)c(C(C)(C)C)c1 (stereo not given) | > 100 µM (inactive) | > 100 µM (inactive) | > 100 µM (inactive) | > 100 µM (inactive) | 0.0478 µM (active) | > 100 µM (inactive) | > 100 µM (inactive) | > 100 µM (inactive) | > 100 µM (inactive) | > 100 µM (inactive) | > 100 µM (inactive) | > 100 µM (inactive) | > 100 µM (inactive) | > 100 µM (inactive) | > 100 µM (inactive) | > 100 µM (inactive) | > 100 µM (inactive) | > 100 µM (inactive) | > 100 µM (inactive) | > 100 µM (inactive) |
| C[C@@H](C[C@@H](O)[C@H](O)C(C)(C)O)[C@H]1CC=C2[C@]3(C)[C@H](O)C[C@H]4C(C)(C)[C@H](O)CC[C@]4(C)[C@H]3CC[C@@]21C | 17.6 µM (inactive) | 15.8 µM (inactive) | 13.4 µM (inactive) | 18 µM (inactive) | 15.7 µM (inactive) | 22.5 µM (inactive) | 15.7 µM (inactive) | 14 µM (inactive) | 16.1 µM (inactive) | 12.3 µM (inactive) | 14.4 µM (inactive) | 13.3 µM (inactive) | 15 µM (inactive) | 13.7 µM (inactive) | 21.9 µM (inactive) | 16.7 µM (inactive) | 12.7 µM (inactive) | 14.2 µM (inactive) | 17.3 µM (inactive) | 13.8 µM (inactive) |
| CC[C@]1(Cc2ccc(OC)c(OC)c2)C=[N+]([O-])O[C@H](OC2CCCC2(c2ccccc2)c2ccccc2)[C@@H]1OC(=O)c1ccccc1 (stereo not given in full) | 6.37 µM (inactive) | 3.6 µM (inactive) | 28.7 µM (inactive) | 3.27 µM (inactive) | 3.94 µM (inactive) | > 100 µM (inactive) | 3.9 µM (inactive) | 8 µM (inactive) | 4.51 µM (inactive) | 3.86 µM (inactive) | 20.8 µM (inactive) | 3.15 µM (inactive) | 6.75 µM (inactive) | 8.79 µM (inactive) | 3.1 µM (inactive) | 42.1 µM (inactive) | 5.92 µM (inactive) | 4.37 µM (inactive) | 8.87 µM (inactive) | > 24.9 µM (inactive) |
| Cc1cc(/N=C/c2ccc(C#N)cc2)n(-c2ccccc2)n1 | 56.1 µM (inactive) | 63.4 µM (inactive) | 48.5 µM (inactive) | 30.8 µM (inactive) | 26.5 µM (inactive) | 44.2 µM (inactive) | 56.1 µM (inactive) | > 100 µM (inactive) | 49.1 µM (inactive) | 94.8 µM (inactive) | > 100 µM (inactive) | 38.9 µM (inactive) | 80.5 µM (inactive) | 31.3 µM (inactive) | 35.5 µM (inactive) | 71.6 µM (inactive) | 64.9 µM (inactive) | 36 µM (inactive) | 49.4 µM (inactive) | > 100 µM (inactive) |
| C=C1C(=O)O[C@H]2C3C(=C(C)CC[C@@H]12)C(=O)[C@@H]1OC31C (stereo not given in full) | 2.21 µM (inactive) | 2.11 µM (inactive) | 5.19 µM (inactive) | 0.318 µM (active) | 0.698 µM (active) | 3.03 µM (inactive) | 5.73 µM (inactive) | 4.48 µM (inactive) | 1.11 µM (active) | 14.4 µM (inactive) | 2.34 µM (inactive) | 2 µM (inactive) | 1.86 µM (inactive) | 1.2 µM (inactive) | 0.622 µM (active) | 13.4 µM (inactive) | 13 µM (inactive) | 1.59 µM (inactive) | 0.685 µM (active) | 3.94 µM (inactive) |
